These results are taken from ChEMBL document CHEMBL1201862, “PubChem BioAssay data set” (2004).

As usually defined, the IC50 is the concentration needed to halve the response being measured. In general, CC50 refers to the concentration at which the toxic effect on the cells reaches its halfway point. In general, EC50 refers to the concentration at which the effect is half-maximal. Usually Ki stands for the dissociation constant of the complex between target and ligand, obtained from inhibition or displacement.

Assay [1] deals with T1, Sphingosine 1-phosphate receptor 4 (Homo sapiens, UniProt O95977).
T1 sequence (O95977 whole entry): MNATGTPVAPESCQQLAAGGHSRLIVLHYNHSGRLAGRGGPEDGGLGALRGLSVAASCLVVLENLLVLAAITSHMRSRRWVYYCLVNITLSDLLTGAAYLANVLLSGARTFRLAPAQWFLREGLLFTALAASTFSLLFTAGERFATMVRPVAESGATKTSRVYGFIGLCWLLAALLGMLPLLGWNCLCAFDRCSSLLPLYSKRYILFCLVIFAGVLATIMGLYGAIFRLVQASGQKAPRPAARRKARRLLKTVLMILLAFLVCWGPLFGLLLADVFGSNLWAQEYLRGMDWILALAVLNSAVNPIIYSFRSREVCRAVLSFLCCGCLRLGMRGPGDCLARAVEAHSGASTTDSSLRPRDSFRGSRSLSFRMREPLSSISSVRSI
Nature of the assay: Fluorescence dose response cell-based high throughput screening assay for antagonists of the Sphingosine 1-Phosphate Receptor 4 (S1P4). [Related pubchem assays: 1524 (Confirmation in triplicates.), 1510 (Primary screen.)]. It counts as functional.

In assay [2] the target is Sphingosine 1-phosphate receptor 1 (Homo sapiens, UniProt P21453). It counts as functional.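 Also: Tango beta-arrestin reporter U2OS cells stimulated with S1P near its EC80; inhibitor potency meaning antagonism of receptor activation by the natural agonist.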
Assay [3] is described as follows: THP-1 cell cytotoxicity, dose response, cytotoxicity control for non-replicating M. tuberculosis project (AID 489025). It counts as functional.
Assay [4] can be described thus: cytotoxicity toward NIH3T3 fibroblasts, dose response, counter-screen, cell-based, ATP luminescence, mouse fibroblasts (AID 2010).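 Also: cells exposed to compound for about 90 hours before reading.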 It counts as functional. A general note: Counterscreens check selectivity or assay interference.
The target of the next assay is T2, Coagulation factor XII (Homo sapiens, UniProt P00748).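 Also: activated factor XIIa alpha cleaving a fluorogenic AMC peptide substrate; inhibitor potency from loss of enzyme activity.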
T2 sequence (P00748 whole entry): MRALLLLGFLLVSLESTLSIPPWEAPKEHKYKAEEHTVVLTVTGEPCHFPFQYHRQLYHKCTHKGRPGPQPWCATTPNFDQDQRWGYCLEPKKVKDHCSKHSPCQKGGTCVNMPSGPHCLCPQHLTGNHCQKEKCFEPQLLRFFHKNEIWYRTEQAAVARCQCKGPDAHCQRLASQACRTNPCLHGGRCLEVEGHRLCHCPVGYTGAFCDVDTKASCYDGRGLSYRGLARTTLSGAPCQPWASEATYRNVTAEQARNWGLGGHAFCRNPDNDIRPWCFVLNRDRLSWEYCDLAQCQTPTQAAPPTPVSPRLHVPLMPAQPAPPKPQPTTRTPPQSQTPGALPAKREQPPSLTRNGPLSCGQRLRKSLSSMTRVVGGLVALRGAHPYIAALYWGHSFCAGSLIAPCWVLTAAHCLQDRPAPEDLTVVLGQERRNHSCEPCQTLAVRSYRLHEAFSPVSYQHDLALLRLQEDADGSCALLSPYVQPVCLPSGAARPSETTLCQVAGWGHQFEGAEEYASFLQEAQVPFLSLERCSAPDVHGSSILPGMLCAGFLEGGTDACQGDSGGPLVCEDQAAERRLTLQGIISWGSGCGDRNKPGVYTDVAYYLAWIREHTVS
It counts as functional.

Assay [5] in a line: inhibitors of firefly luciferase expression or activity, dose response, H4 neuroglioma cells, luminescence (AID 1990). It counts as functional, cell-based.
Assay [6] deals with T3, RNA-binding protein pos-1 (Caenorhabditis elegans, UniProt G5EF15).
T3 sequence (G5EF15 whole entry): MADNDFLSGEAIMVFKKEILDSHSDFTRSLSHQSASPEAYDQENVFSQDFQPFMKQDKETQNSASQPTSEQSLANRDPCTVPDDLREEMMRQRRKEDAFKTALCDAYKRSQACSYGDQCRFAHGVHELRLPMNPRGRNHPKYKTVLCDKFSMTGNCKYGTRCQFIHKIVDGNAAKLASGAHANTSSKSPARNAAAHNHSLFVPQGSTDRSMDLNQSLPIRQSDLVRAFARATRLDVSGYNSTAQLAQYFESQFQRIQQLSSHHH
In words: inhibitors of POS-1/mex-3 RNA binding, dose response, biochemical, fluorescence polarization (AID 1964). (In fluorescence polarisation assays a small probe gives low polarisation when free and higher when bound to something large.)

Assay [7] has as its system Streptococcus sp. 'group A'. Nature of the assay: growth inhibition of control SK(-) GAS strain, dose response, counter-screen for streptokinase expression inhibitor project, luminescence, kanamycin, BacTiterGlo, confirmation (AID 1900). It counts as functional, organism-based.
For the next assay, the target named is T4, Bcl-2-related protein A1 (Mus musculus, UniProt Q07440).
T4 sequence (Q07440 whole entry): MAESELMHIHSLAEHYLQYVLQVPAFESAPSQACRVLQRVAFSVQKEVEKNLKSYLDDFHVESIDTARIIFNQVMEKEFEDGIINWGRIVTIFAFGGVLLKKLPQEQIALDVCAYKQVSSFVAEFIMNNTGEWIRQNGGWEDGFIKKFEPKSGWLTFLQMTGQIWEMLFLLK
In words: Bfl-1 inhibitors, primary screen, biochemical, fluorescence polarization, FITC-Bid, mouse (AID 432).

Assay [8] is described as follows: growth suppression of beta-catenin-knockout colon cells, dose response, cell-based, HCT116, human colon tumor (AID 1045).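 Also: HCT116 colon tumor cells with beta catenin knocked out; cells exposed to compound for 60 hours.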 The class given is functional.
Assay [9] addresses Tyrosine-protein kinase SYK (Homo sapiens, UniProt P43405). It counts as functional.
For the next assay, the target named is Activin receptor type-1 (Homo sapiens, UniProt Q04771). Nature of the assay: Navigating the Kinome. Panel member name: ACVR1. The class given is functional.
In assay [10] the target is Mitogen-activated protein kinase 9 (Homo sapiens, UniProt P45984). It counts as functional.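 Also: value from a kinome panel profiling assay, MAPK9 panel entry.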
Assay [11] concerns the target Serine/threonine-protein kinase TAO1 (Homo sapiens, UniProt Q7L7X3). It counts as functional.
The target in assay [12] is High affinity nerve growth factor receptor (Homo sapiens, UniProt P04629). The class given is functional.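 Also: NTRK1 tested as one member of a kinome-wide profiling panel.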
The target of assay [13] is Mitogen-activated protein kinase 1 (Homo sapiens, UniProt P28482). The class given is functional.
Mitogen-activated protein kinase 1, sequence (P28482 whole entry): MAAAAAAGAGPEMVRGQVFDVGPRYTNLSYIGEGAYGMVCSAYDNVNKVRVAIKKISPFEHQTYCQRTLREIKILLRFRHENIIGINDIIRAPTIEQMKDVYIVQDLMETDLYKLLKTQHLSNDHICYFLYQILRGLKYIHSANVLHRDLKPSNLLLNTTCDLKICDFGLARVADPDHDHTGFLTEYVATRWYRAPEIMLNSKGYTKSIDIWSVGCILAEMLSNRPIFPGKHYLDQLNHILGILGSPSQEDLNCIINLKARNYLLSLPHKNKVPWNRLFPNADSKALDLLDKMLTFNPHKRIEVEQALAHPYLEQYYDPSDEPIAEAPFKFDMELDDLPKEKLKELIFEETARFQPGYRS
The target of assay [14] is Interleukin-1 receptor-associated kinase 1 (Homo sapiens, UniProt P51617). The class given is functional.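 Also: IRAK1 tested as one member of a kinome panel.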
Interleukin-1 receptor-associated kinase 1, sequence (P51617 whole entry): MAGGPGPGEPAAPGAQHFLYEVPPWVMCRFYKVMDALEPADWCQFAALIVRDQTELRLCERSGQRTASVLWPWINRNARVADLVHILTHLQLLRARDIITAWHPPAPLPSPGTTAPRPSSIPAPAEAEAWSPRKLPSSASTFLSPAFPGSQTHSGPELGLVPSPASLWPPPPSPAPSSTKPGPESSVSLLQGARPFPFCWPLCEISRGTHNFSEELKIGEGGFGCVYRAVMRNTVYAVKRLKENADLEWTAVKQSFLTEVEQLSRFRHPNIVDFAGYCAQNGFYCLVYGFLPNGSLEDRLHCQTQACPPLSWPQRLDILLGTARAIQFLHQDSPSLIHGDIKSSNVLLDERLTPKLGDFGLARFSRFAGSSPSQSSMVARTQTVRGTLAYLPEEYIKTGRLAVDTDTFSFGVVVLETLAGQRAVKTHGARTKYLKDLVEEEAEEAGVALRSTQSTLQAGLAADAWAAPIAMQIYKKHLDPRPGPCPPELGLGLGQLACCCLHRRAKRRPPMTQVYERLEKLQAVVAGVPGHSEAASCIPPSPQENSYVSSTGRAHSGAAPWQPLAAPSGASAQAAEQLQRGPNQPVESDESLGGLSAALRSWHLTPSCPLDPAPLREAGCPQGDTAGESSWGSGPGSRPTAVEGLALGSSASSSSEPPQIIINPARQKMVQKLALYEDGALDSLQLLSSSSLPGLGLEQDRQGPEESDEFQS
Assay [15] addresses Protein-tyrosine kinase 6 (Homo sapiens, UniProt Q13882). It counts as functional.
In assay [16] the target is Leucine-rich repeat serine/threonine-protein kinase 2 (Homo sapiens, UniProt Q5S007). The class given is functional.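 Also: value from a broad kinome-wide panel profiling study in which LRRK2 was one of the kinases tested.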
Another assay has as its target Beta-galactosidase (Escherichia coli, UniProt Q8VNN2). Nature of the assay: beta-galactosidase enzyme inhibitors and activators, dose response, artefact control for CCR6 antagonist project, biochemical, E. coli enzyme, set 3 (AID 504712). The class given is functional.
Assay [17] deals with Mitogen-activated protein kinase kinase kinase kinase 5 (Homo sapiens, UniProt Q9Y4K4). The class given is functional.
The target of assay [18] is Tyrosine-protein kinase Fer (Homo sapiens, UniProt P16591). The class given is functional.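 Also: FER tested as one member of a kinome panel.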
Tyrosine-protein kinase Fer, sequence (P16591 whole entry): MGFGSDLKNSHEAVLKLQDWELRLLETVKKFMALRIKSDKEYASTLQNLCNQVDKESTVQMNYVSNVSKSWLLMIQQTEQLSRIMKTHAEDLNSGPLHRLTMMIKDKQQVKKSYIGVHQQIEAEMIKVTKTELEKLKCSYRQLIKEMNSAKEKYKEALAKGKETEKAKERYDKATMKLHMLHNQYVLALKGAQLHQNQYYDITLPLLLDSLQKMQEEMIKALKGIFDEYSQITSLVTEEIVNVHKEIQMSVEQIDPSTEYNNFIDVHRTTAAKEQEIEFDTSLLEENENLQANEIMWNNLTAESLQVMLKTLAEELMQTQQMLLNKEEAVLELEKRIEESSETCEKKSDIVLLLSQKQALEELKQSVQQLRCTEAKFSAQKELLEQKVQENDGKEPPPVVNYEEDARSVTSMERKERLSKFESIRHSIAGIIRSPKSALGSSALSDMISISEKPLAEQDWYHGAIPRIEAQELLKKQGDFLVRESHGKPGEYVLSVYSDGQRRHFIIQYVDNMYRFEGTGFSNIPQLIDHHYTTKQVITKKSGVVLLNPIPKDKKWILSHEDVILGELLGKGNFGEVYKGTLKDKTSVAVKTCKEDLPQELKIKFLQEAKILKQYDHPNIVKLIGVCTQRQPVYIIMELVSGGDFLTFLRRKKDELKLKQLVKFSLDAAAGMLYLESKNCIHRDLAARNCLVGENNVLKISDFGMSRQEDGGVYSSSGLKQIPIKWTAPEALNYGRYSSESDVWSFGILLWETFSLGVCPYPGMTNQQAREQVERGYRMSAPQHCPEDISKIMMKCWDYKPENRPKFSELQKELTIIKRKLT
The target of assay [19] is Cyclin-dependent kinase 7 (Homo sapiens, UniProt P50613). It counts as functional.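 Also: value comes from a kinome-wide kinase profiling panel in which CDK7 is one member.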
Cyclin-dependent kinase 7, sequence (P50613 whole entry): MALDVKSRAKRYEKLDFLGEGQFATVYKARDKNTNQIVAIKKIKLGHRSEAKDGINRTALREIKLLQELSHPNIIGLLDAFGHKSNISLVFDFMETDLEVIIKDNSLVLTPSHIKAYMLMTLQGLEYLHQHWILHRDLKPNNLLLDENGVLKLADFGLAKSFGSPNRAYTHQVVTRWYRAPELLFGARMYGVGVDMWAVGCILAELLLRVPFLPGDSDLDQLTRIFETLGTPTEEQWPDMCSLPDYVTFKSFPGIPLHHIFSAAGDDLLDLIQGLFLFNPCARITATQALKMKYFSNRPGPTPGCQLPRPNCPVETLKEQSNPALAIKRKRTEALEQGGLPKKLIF
Assay [20] concerns the target Dual specificity mitogen-activated protein kinase kinase 2 (Homo sapiens, UniProt P36507). Nature of the assay: Navigating the Kinome. Panel member name: MAP2K2. The class given is functional.
Assay [21] has as its target Calcium/calmodulin-dependent protein kinase type II subunit alpha (Homo sapiens, UniProt Q9UQM7). In words: Navigating the Kinome. Panel member name: CAMK2A. It counts as functional.

Structures are written as SMILES. Activity calls are given as the source filed them.

Serine/threonine-protein kinase TAO1, sequence (Q7L7X3 whole entry): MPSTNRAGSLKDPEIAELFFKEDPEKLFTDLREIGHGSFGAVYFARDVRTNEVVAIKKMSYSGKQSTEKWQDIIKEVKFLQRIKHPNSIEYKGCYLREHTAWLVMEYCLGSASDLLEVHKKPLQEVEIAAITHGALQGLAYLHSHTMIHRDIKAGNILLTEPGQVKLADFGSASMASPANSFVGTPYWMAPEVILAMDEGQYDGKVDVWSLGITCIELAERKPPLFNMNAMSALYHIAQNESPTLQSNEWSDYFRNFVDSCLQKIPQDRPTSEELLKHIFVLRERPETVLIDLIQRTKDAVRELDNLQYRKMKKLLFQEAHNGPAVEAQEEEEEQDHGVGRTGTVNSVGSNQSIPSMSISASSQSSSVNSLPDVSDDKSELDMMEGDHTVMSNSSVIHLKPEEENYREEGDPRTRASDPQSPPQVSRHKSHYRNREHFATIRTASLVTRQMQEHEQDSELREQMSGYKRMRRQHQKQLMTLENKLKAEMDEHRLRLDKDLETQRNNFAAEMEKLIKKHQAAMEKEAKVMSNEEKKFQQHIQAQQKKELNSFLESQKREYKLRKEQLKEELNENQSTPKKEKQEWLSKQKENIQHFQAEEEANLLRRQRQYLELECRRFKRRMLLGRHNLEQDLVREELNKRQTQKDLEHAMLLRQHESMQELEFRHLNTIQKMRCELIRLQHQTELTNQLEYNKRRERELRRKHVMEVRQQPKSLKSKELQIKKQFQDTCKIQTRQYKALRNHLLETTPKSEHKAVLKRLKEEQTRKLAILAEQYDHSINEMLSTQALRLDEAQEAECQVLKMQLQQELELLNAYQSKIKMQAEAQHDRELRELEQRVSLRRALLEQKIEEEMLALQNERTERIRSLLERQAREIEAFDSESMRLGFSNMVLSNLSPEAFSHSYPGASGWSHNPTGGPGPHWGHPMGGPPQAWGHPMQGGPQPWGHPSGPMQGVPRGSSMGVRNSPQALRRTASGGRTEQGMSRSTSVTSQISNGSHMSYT
Beta-galactosidase, sequence (Q8VNN2 whole entry): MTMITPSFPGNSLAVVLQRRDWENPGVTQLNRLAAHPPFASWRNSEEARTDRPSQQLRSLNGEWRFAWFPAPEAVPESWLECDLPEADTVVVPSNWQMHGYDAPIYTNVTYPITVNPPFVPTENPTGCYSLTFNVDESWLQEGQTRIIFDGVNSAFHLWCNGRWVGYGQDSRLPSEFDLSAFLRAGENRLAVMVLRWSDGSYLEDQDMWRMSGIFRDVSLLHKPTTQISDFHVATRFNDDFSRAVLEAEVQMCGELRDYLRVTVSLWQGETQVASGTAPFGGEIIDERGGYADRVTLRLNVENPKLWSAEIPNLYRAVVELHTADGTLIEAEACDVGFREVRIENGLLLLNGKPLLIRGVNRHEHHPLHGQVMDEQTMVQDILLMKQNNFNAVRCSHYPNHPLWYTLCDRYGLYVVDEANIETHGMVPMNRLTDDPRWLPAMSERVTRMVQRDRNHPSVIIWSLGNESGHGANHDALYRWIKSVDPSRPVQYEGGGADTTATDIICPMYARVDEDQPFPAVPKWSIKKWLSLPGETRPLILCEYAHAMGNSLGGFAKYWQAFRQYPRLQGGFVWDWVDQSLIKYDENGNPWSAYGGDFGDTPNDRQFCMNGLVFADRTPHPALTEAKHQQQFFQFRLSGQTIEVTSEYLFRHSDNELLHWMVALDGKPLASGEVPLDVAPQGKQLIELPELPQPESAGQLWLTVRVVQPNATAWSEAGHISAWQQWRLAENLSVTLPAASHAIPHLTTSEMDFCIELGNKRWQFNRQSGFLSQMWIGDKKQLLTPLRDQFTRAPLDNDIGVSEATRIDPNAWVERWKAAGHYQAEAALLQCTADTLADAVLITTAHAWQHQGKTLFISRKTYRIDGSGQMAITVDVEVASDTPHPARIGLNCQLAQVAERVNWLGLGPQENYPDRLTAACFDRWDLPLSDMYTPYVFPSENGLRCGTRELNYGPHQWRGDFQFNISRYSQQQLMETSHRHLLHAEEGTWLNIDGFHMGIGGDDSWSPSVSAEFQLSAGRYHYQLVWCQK
Protein-tyrosine kinase 6, sequence (Q13882 whole entry): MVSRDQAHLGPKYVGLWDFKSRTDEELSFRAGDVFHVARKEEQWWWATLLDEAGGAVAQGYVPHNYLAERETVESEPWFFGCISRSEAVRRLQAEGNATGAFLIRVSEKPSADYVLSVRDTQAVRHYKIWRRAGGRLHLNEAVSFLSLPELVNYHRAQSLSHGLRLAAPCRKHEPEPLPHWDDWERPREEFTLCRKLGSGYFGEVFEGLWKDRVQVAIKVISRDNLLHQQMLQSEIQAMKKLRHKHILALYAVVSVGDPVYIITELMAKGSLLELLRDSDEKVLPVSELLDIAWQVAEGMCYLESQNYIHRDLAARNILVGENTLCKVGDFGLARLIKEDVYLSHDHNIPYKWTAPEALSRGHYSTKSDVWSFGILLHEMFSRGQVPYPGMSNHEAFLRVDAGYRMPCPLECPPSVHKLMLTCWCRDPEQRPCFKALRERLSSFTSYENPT

Take `COC(=O)CCS(=O)(=O)c1nc(-c2ccccc2)cc(C(F)(F)F)n1`: the half-inhibitory concentration (IC50) in assay [1] is 1.34 µM (active); in assay [2] it was 28.4 µM (not active). Besides, the CC50 in assay [3] was 25.2 µM (active).
As for `O=C(O)c1ccc(NC2=C(Cl)C(=O)c3ccccc3C2=O)cc1`, the EC50 in assay [4] is 4.97 µM (active). Further, the IC50 on Coagulation factor XII is > 50 µM (inactive).
Consider `O=C(O)c1ccc2c3c(ncnc13)-c1ccccc1C2=O`, for which the EC50 in assay [5] is 2.48 µM (active); in [6] it was 34.8 µM (active); in assay [7] it was 6.43 µM (active); in [8], 13.4 µM (active). Moreover, the half-maximal inhibitory concentration (IC50) against Bcl-2-related protein A1 is > 100 µM (not active).
As for `Cc1ccc2nccc(NC(=O)Nc3cccc(C(F)(F)F)n3)c2c1`, the Ki in assay [9] is > 1.58 µM (inactive); at Activin receptor type-1 it was 0.316 µM (active); in assay [10], > 3.98 µM (inactive); in assay [11], > 6.31 µM (inactive); in [12], > 2.51 µM (inactive); in assay [13] it was > 7.94 µM (inactive). The results for the Ki in assay [14], in assay [15] and in assay [16] were > 7.94 µM (inactive), 0.398 µM (active) and > 2.51 µM (inactive), respectively.
For the compound `Cc1c(/N=C2\C=CC(=O)c3ccccc32)c(=O)n(-c2ccccc2)n1C`, the IC50 on Beta-galactosidase is > 66.6 µM (inactive).
With `COc1cc2c(cc1F)C(c1ccccc1Cl)=Nc1c(n[nH]c1C)N2` [RG-1530], the Ki in assay [17] was > 2.51 µM (inactive); in assay [18], 0.126 µM (active); in [19] it was 0.631 µM (active); in assay [20], 2.51 µM (active); in [21], > 6.31 µM (inactive).
